Data as given in article PMC8156206, “Novel N,N′-Disubstituted Selenoureas as Potential Antioxidant and Cytotoxic Agents” (Antioxidants, 2021).

Experiments:
[1] = test system: HTB-54 cells (lung adenocarcinoma); test: MTT cell viability assay, HTB-54; type: cell-based, human
How it was run: (§1)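 Cells at 1 × 10^4/well grown 24 h, then treated 48 h with selenourea at 10 and 50 µM (selected compounds 0.1–100 µM), DMSO as negative control. MTT added 150 min before end, formazan read at 570 nm; IC50 by nonlinear fit, ≥3 independent experiments in triplicate.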

[2] = test system: BEAS-2B cells (lung non-malignant derived cell line); test: MTT cell viability assay, BEAS-2B; type: cell-based; conditions: Homo sapiens, 48 h, mean ± SD
Description: (§2) Cell lines were purchased from the American Type Culture Collection (ATCC). MCF-7, HTB-54, BEAS-2B and 184B5 cell lines were grown in RPMI 1640 medium (Gibco) supplemented with 10% fetal bovine serum (FBS; Gibco), 100 units/mL penicillin, and […] streptomycin (Gibco). HT-29 and HCT-116 cell lines was cultured in McCoy’s 5A (Gibco), 10% FBS, 100 units/mL penicillin, and 100 μg/mL streptomycin. Cells were maintained at 37 °C and 5% CO2. Culture medium was replaced every three days.
(§3) A cell viability assay of each compound was carried out using an MTT assay. Each selenourea was dissolved in dimethyl sulfoxide (DMSO) at a concentration of 0.01 M. Serial dilutions were prepared with non-supplemented culture medium. Cytotoxic activity of each selenourea was determined at two different concentrations (10 and 50 µM) in MCF-7, HTB-54, and HT-29 cells. In addition, selected compounds were tested at seven different concentrations (0.1, 1, 5, 10, 25, 50, 100 µM) on MCF-7, HT-29, HCT-116, HTB-54, 184B5, and BEAS-2B cells. The number of passages before defrosting the cells was 3, and they were kept under culture up to a maximum of 15.
(§4) Briefly, 1 × 10^4 cells/well were grown in 96-well plates for 24 h. Then, these cells were incubated with either DMSO (negative control) at 5 µM or a different concentration of each tested selenourea for 48 h. A volume of 20 µL of MTT was added 150 min before the termination point to measure cellular viability. After this time, culture medium was removed. The resultant formazan crystals were dissolved in 50 µL of DMSO, and absorbance was measured at 570 nm. Results are expressed as IC50, the half maximal inhibitory concentration. This value was calculated using GraphPad Prism 7 software by nonlinear curve fitting. Furthermore, the selectivity index (SI) was calculated as the ratio of the IC50 values determined for the non-malignant and the tumoral cells (IC50 (184B5)/IC50 (MCF-7) or (IC50 (BEAS-2B)/IC50 (HTB-54). Data were obtained from at least three independent experiments performed in triplicates.

[3] = test system: HT-29 cells (colon carcinoma); test: MTT cell viability assay, HT-29; type: cell-based; conditions: Homo sapiens, 48 h, MTT
How it was run: as §1

HT-29 cells [4] = test: Annexin V-APC/7AAD cell death assay; type: cell-based, human
Description: (§5) 6 × 10^5 cells/well were grown in 6-well plates for 24 h. Cultures were treated with the corresponding amount of the selected compounds, DMSO (control), or 10 μM camptothecin (positive control). Propidium iodide (PI) was used as DNA stain dye to determine cell cycle distribution. Cells were stored at −20 °C with 70% ethanol for at least 24 h. Then, ethanol was removed, cells were washed with PBS, and stained for 30 min with 500 µL of a solution containing 0.001% triton, 0.2% w/v RNase, and 0.02% PI.
For the determination of apoptosis, APC Annexin V Apoptosis Detection Kit with 7-AAD from Biolegend® was employed following the staining procedure described by the manufacturer. Samples were analyzed by flow cytometry using a BD Accuri™ C6 Plus Flow Cytometer (Beckton, Dickinson and company, Franklin Lakes (NJ), USA).
Mounting evidence of the anticancer potential of selenium compounds can be found in the literature. […] Remarkably, these mechanisms vary depending on the selenium compound and on cell phenotype. […] Assays were conducted at different 6c concentrations ranging from 0.1 to 10 µM. Camptothecin (10 µM) was used as positive control.

HT-29 cells [5] = test: Cell cycle progression, propidium iodide flow cytometry; type: cell-based, human; conditions: HT-29, 48 h, 0.1, 1, 5 and 10 µM
Description: as §5
To gain further knowledge about the mechanism of action of 6c, we investigated the effect of this compound on cell cycle progression using flow cytometry analysis, with propidium iodide as a DNA staining agent. We analyzed the effect at 48 h treatment with four different concentrations (0.1, 1, 5, and 10 µM) of compound 6c on HT-29 cells. Camptothecin (10 μM) was used as a positive control. […] The cell cycle modulation of 6c is very similar to camptothecin, the reference compound used in the study.

[6] = test system: MCF-7 cells (breast adenocarcinoma); test: MTT cell viability assay, MCF-7; type: cell-based, human
How it was run: as §1

[7] = test system: 184B5 cells (breast non-malignant derived cell line); test: MTT cell viability assay, 184B5; type: cell-based; conditions: Homo sapiens, 184B5; 48 h, MTT, mean ± SD; read-out: IC50 184B5 (breast, non-malignant)
Description: as §2, §3, §4

[8] = test system: MCF-7, HTB-54, HT-29 and HCT-116 cancer cell lines; test: MTT assay, panel of four cancer cell lines; type: cell-based; conditions: MCF-7, HTB-54, HT-29, HCT-116, read-out: IC50 against the four cancer cell lines tested (all the cell lines)
Description: as §3, §4
Those derivatives that reduced the growth of the cell lines below 50% at 10 µM in at least one cell line were selected for being evaluated at five concentrations between […] and 100 µM. Ten compounds (1d, 1e, 2a, 2d, 3a, 6a, 6b, 6c, 6d, and 6e) passed this threshold and four of them (1e, 6c, 6d and 6e) in all three cancer cell lines. The data are expressed as IC50 (mean ± SD) in a panel of four cancer cell lines (MCF-7, HTB-54, HT-29, and HCT-116), and are shown in Table 1. Cisplatin was used as a standard drug. […] Additionally, reported IC50 values of a well-known antitumor selenocompound, i.e., sodium selenite (Na2SeO3), were used as reference for comparision with the selected selenoureas.

[9] = HT-29, 6c 10 µM, 24 h, 30 min preincubation

COc1ccc(NC(=[Se])NC23CC4CC(CC(C4)C2)C3)cc1 [Compound 6c, N´-adamantyl-N-(4-methoxyphenyl)selenourea]
IC50 ([1]; Homo sapiens, HTB-54, 48 h, MTT, mean ± SD, read-out: IC50 HTB-54 (lung)): 5.09 ± 0.28 µM | viability at 10 µM ([1]; Homo sapiens, HTB-54, 10 µM, 48 h, MTT, read-out: cell viability, percentage of live cells): 33.1% | viability at 50 µM ([1]; Homo sapiens, HTB-54, 50 µM, 48 h, MTT, read-out: cell viability, percentage of live cells): 30.9% | SI (selectivity index) lung ([1]; IC50 (BEAS-2B)/IC50 (HTB-54)): 0.93 | IC50 [2]: 4.73 ± 0.79 µM | IC50 ([3]; HT-29, mean ± SD, read-out: IC50 HT-29 (colon)): 5.6 ± 1.24 µM | viability at 10 µM ([3]; HT-29, 10 µM, read-out: cell viability, percentage of live cells): 34.6% | viability at 50 µM ([3]; HT-29, 50 µM, read-out: cell viability, percentage of live cells): 25.7% | cell death after pre-incubation with PI3K inhibitor wortmannin (HT-29 cells [4]; [9]): prevented induction cell death | number of dead cells after pre-incubation with pancaspase inhibitor z-VAD-fmk (HT-29 cells [4]; [9]): no significant differences in the number of dead cells | number of dead cells (7AAD positive cells) (HT-29 cells [4]; HT-29, 48 h, 5 and 10 µM): increased the number of dead cells | cell cycle modulation (HT-29 cells [5]): cell cycle arrest at the S phase in a concentration-dependent manner | IC50 ([6]; Homo sapiens, MCF7, 48 h, MTT, mean ± SD, read-out: IC50 MCF-7 (breast)): 4.94 ± 1.99 µM | viability at 10 µM ([6]; Homo sapiens, MCF7, MCF-7, 10 µM, 48 h, MTT, read-out: cell viability, percentage of live cells): 37.9% | viability at 50 µM ([6]; Homo sapiens, MCF7, MCF-7, 50 µM, 48 h, MTT, read-out: cell viability, percentage of live cells): 9.2% | SI (selectivity index) breast ([6]; IC50 (184B5)/IC50 (MCF-7)): 1.46 | IC50 [7]: 7.23 ± 2.28 µM | IC50 [8]: < 10 µM
